Measurements published in ChEMBL document CHEMBL4371063, “Identification of 2-(2'-fluoro-[1,1'-biphenyl]-2-yl)acetamide as a Sodium Valproate-like broad spectrum anti-epileptic drug candidate” (Bioorg Med Chem Lett, 2019).
The source made the active and inactive calls.

Assays:
[1] = system: Mus musculus; assay: Anticonvulsant activity in maximal electroshock induced seizure mouse model assessed as reduction in convulsions at 100 mg/kg, po; format: functional, organism-based
[2] = system: Mus musculus; assay: Anticonvulsant activity in maximal electroshock induced seizure mouse model assessed as reduction in convulsions at 50 mg/kg, po; format: functional, organism-based
[3] = system: Mus musculus; assay: Anticonvulsant activity in maximal electroshock induced seizure mouse model assessed as reduction in convulsions at 25 mg/kg, po; format: functional, organism-based
[4] = system: Mus musculus; assay: Anticonvulsant activity in subcutaneous pentylenetetrazole-induced seizure mouse model assessed as reduction in convulsions at 100 mg/kg, po; format: functional, organism-based
[5] = system: Mus musculus; assay: Anticonvulsant activity in subcutaneous pentylenetetrazole-induced seizure mouse model assessed as reduction in convulsions at 25 mg/kg, po; format: functional, organism-based
[6] = system: Mus musculus; assay: Anticonvulsant activity in subcutaneous pentylenetetrazole-induced seizure mouse model assessed as reduction in convulsions at 50 mg/kg, po; format: functional, organism-based
[7] = system: Rattus norvegicus; assay: Anticonvulsant activity in amygdala kindling rat model assessed as change in after discharge threshold at 300 mg/kg, po relative to control; format: functional
[8] = system: Rattus norvegicus; assay: Anticonvulsant activity in amygdala kindling rat model assessed as change in after discharge threshold at 600 mg/kg, po relative to control; format: functional
[9] = system: Rattus norvegicus; assay: Anticonvulsant activity in amygdala kindling rat model assessed as change in after discharge duration at 300 mg/kg, po (reference value: -5.5%); format: functional
[10] = system: Rattus norvegicus; assay: Anticonvulsant activity in amygdala kindling rat model assessed as change in after discharge duration at 600 mg/kg, po (reference value: -5.5%); format: functional
[11] = system: Mus musculus; assay: Anticonvulsant activity in po dosed maximal electroshock induced seizure mouse model assessed as reduction in convulsions; format: functional
[12] = system: Mus musculus; assay: Anticonvulsant activity in po dosed subcutaneous pentylenetetrazole-induced seizure mouse model assessed as reduction in convulsions; format: functional
[13] = system: Mus musculus; assay: Anticonvulsant activity in po dosed 6-Hz induced seizure mouse model; format: functional
[14] = Neurotoxicity in po dosed mouse by rotarod test; format: toxicity, organism-based; settings: in vivo
[15] = Stability in rat hepatic microsomes assessed as parent compound remaining after 30 mins in presence of NADPH; format: ADME, Microsome; settings: liver microsomes, read-out: Stability
[16] = Stability in human hepatic microsomes assessed as parent compound remaining after 30 mins in presence of NADPH; format: ADME, Microsome; settings: liver microsomes, read-out: Stability
[17] = system: Rattus norvegicus; assay: Anticonvulsant activity in amygdala kindling rat model assessed as change in after discharge threshold at 50 mg/kg, po relative to control; format: functional
[18] = system: Rattus norvegicus; assay: Anticonvulsant activity in amygdala kindling rat model assessed as change in after discharge threshold at 100 mg/kg, po relative to control; format: functional
[19] = system: Rattus norvegicus; assay: Anticonvulsant activity in amygdala kindling rat model assessed as change in after discharge duration at 50 mg/kg, po (reference value: -5.5%); format: functional
[20] = system: Rattus norvegicus; assay: Anticonvulsant activity in amygdala kindling rat model assessed as change in after discharge duration at 100 mg/kg, po (reference value: -5.5%); format: functional
[21] = Therapeutic index, ratio of TD50 for neurotoxicity in po dosed mouse to ED50 for po dosed maximal electroshock induced seizure mouse model; format: toxicity, organism-based; settings: in vivo, read-out: Ratio TD50/ED50
[22] = Therapeutic index, ratio of TD50 for neurotoxicity in po dosed mouse to ED50 for po dosed 6-Hz induced seizure mouse model; format: toxicity, organism-based; settings: in vivo, read-out: Ratio TD50/ED50
[23] = target: T1, GABA-A receptor; anion channel (Rattus norvegicus) (UniProt O09028+P15431+P18506+P18508+P19969+P20236+P23574+P23576+P28471+P28473+P30191+P62813+P63079+P63138+Q91ZM7+Q9ES14); assay: Displacement of [3H]flunitrazepam from GABAA receptor in Sprague-Dawley rat cerebral cortex at 30 uM after 60 mins by scintillation counting method
[24] = target: T1, GABA-A receptor; anion channel (Rattus norvegicus); assay: Displacement of […] from GABAA receptor in Sprague-Dawley rat cerebral cortex at 30 uM by scintillation counting method
[25] = target: T2, GABA-A receptor; anion channel (Homo sapiens) (UniProt P14867+P47870+P18507+P28472+P48169+Q99928+Q9UN88+P34903+O00591+O14764+Q8N1C3+P18505+P78334+P47869+P31644+Q16445); assay: Displacement of [3H]muscimol from GABAA receptor (unknown origin) at 30 uM; format: protein-complex assay
[26] = target: T2, GABA-A receptor; anion channel (Homo sapiens); assay: Displacement of [3H]Ro15-1788 from GABAA receptor (unknown origin) at 30 uM; format: protein-complex assay
[27] = target: T2, GABA-A receptor; anion channel (Homo sapiens); assay: Displacement of [3H]TBOB from GABAA receptor (unknown origin) at 30 uM; format: protein-complex assay

Row | Compound | Activity [1] | Activity [2] | Activity [4] | other results
1 | NC(=O)c1ccccc1-c1ccccc1F | Active | Active | – | Activity [3]: Active
2 | O=C1NC(=O)C(c2ccccc2-c2ccccc2F)N1 (centres undefined) | Active | – | inactive | –
3 | NC(=O)Cc1cccc(F)c1-c1ccccc1F | Active | Active | – | Activity [5]: inactive
4 | CNS(=O)(=O)c1ccccc1-c1ccccc1F | Active | Active | Active | Activity [3]: Active; Activity [6]: Active
5 | O=C(O)Cc1ccccc1-c1ccccc1F | inactive | – | inactive | –
6 | N#Cc1ccccc1-c1ccccc1CC(N)=O | – | – | inactive | –
7 | NC(=O)Cc1cccnc1-c1ccccc1F | inactive | – | – | –
8 | NC(=O)Cc1ncccc1-c1ccccc1F | Active | – | – | –
9 | NC(=O)Cc1ccc(F)cc1-c1ccccc1F | Active | Active | – | Activity [3]: inactive
10 | COc1ccccc1-c1ccccc1CC(N)=O | – | inactive | – | –
11 | NC(=O)Cc1cc(F)ccc1-c1ccccc1F | Active | – | Active | Activity [3]: inactive; Activity [5]: inactive
12 | NC(=O)Cc1c(F)cccc1-c1ccccc1F | Active | Active | – | –
13 | O=C1CCCN1c1ccccc1-c1ccccc1F | Active | – | inactive | –
14 | NC(=O)Cc1ccccc1-c1cc(F)ccc1F | Active | Active | Active | Activity [3]: inactive; Activity [5]: inactive
15 | CCCC(CCC)C(=O)[O-].[Na+] [VALPROATE SODIUM] | – | – | – | Activity [7]: -5.4%; Activity [8]: 81.3%; Activity [9]: 11.1%; Activity [10]: -22.5%; ED50 [11]: 309 mg/kg; ED50 [12]: 336 mg/kg; ED50 [13]: 343 mg/kg; TD50 [14]: 396 mg/kg
16 | NC(=O)Cc1ccccc1-c1ccccc1Cl | Active | Active | Active | Activity [6]: Active; Activity [5]: inactive
17 | NC(=O)Cc1ccccc1-c1ccc(F)cc1F | Active | – | – | –
18 | NC(=O)Cc1ccccc1-c1ccccc1C(F)(F)F | Active | inactive | – | Activity [6]: inactive
19 | NC(=O)Cc1cnccc1-c1ccccc1F | inactive | – | inactive | –
20 | NC(=O)Cc1ccccc1-c1c(F)cccc1F | Active | Active | Active | Activity [3]: Active; Activity [5]: inactive
21 | NC(=O)Cc1ccccc1-c1ccccc1F | Active | Active | – | remaining at 0.5 h [15]: > 95%; remaining at 0.5 h [16]: > 95%; Activity [17]: 75.9%; Activity [18]: 80.1%; Activity [19]: -22.9%; Activity [20]: -22.9%; ED50 [11]: 27 mg/kg; ED50 [12]: 27 mg/kg; ED50 [13]: 56 mg/kg; TD50 [14]: 129 mg/kg; selectivity ratio [21]: 4.8; selectivity ratio [22]: 2.3; inhibition [23]: inactive; inhibition [24]: inactive; inhibition [25]: inactive; inhibition [26]: inactive; inhibition [27]: inactive
22 | NC(=O)Cc1ccccc1-c1ccncc1F | inactive | – | – | –
